# Measured values published in US6479435B1, “Diaryl ethers and processes for their preparation and herbicidal and desiccant compositions containing them” (ISK Americas Incorporated, priority 1997, dated 2002).
# Key:
# Format in all cases: in vivo
# [1] = test system: Johnsongrass (Sorghum halepense, SORHA); assay: Pre-emerge greenhouse herbicide test, phytotoxicity rating; conditions: 14 days after application, rating scale 0-100
# Method in brief: (§1)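 Visual 0–100 injury rating (100 = all plants dead) taken 14 days after treatment. Rates of 125–1000 g ai/ha in acetone, 187 l/ha, were sprayed onto soil one day post-sowing; pots were surface-watered to incorporate, then bottom-watered.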
# [2] = test system: barnyardgrass (Echinochloa crusgalli, ECHCG); assay: as above; conditions: 14 days after application, rating scale 0-100
# Method in brief: as §1
# [3] = test system: common ragweed (Ambrosia artemisiifolia L., AMBEL); assay: as above; conditions: 14 days after application, rating scale 0-100
# Method in brief: as §1
# [4] = test system: green foxtail (Setaria viridis, SETVI); assay: as above; conditions: 14 days after application, rating scale 0-100
# Method in brief: as §1
# [5] = test system: ivyleaf morningglory (Ipomoea hederacea, IPOHE); assay: as above; conditions: 14 days after application, rating scale 0-100
# Method in brief: as §1
# [6] = test system: lambsquarters (Chenopodium album, CHEAL); assay: as above; conditions: 14 days after application, rating scale 0-100
# Method in brief: as §1
# [7] = test system: large crabgrass (Digitaria sanguinalis, DIGSA); assay: as above; conditions: 14 days after application, rating scale 0-100
# Method in brief: as §1
# [8] = test system: redroot pigweed (Amaranthus retroflexus, AMARE); assay: as above; conditions: 14 days after application, rating scale 0-100
# Method in brief: as §1
# [9] = test system: sicklepod (Cassia obtusifolia, CASOB); assay: as above; conditions: 14 days after application, rating scale 0-100
# Method in brief: as §1
# [10] = test system: velvetleaf (Abutilon theophrasti, ABUTH); assay: as above; conditions: 14 days after application, rating scale 0-100
# Method in brief: as §1
# [11] = test system: field corn (Zea mays L., var. Dekalb 535, CORN); assay: Pre-emerge greenhouse test, crop damage rating; conditions: 14 days after application, rating scale 0-100
# Method in brief: as §1
# [12] = test system: upland rice (Oryza sp., var.Tebonnet, RICE); assay: Pre-emerge greenhouse test, crop damage rating; conditions: 14 days after application, rating scale 0-100
# Method in brief: as §1
# [13] = test system: soybean (Glycine max L., var. Pella 86, SOY); assay: Pre-emerge greenhouse test, crop damage rating; conditions: 14 days after application, rating scale 0-100
# Method in brief: as §1
# [14] = test system: common ragweed (Ambrosia artemisiifolia L., AMBEL); assay: Post-emerge greenhouse herbicide test, phytotoxicity rating; conditions: 14 days after application
# Method in brief: (§2)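 Scores use a 0 (no damage) to 100 (complete kill) scale, taken 14 days after a foliar spray. Acetone solutions with 0.25% v/v non-ionic surfactant were applied by track sprayer at 187 l/ha and 63-1000 g ai/ha to bottom-watered 2-3 leaf plants.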
# [15] = test system: Johnsongrass (Sorghum halepense, SORHA); assay: as above; conditions: 14 days after application
# Method in brief: as §2
# [16] = test system: barnyardgrass (Echinochloa crusgalli, ECHCG); assay: as above; conditions: 14 days after application
# Method in brief: as §2
# [17] = test system: green foxtail (Setaria viridis, SETVI); assay: as above; conditions: 14 days after application
# Method in brief: as §2
# [18] = test system: ivyleaf morningglory (Ipomoea hederacea, IPOHE); assay: as above; conditions: 14 days after application
# Method in brief: as §2
# [19] = test system: lambsquarters (Chenopodium album, CHEAL); assay: as above; conditions: 14 days after application
# Method in brief: as §2
# [20] = test system: large crabgrass (Digitaria sanguinalis, DIGSA); assay: as above; conditions: 14 days after application
# Method in brief: as §2
# [21] = test system: redroot pigweed (Amaranthus retroflexus, AMARE); assay: as above; conditions: 14 days after application
# Method in brief: as §2
# [22] = test system: sicklepod (Cassia obtusifolia, CASOB); assay: as above; conditions: 14 days after application
# Method in brief: as §2
# [23] = test system: velvetleaf (Abutilon theophrasti, ABUTH); assay: as above; conditions: 14 days after application
# Method in brief: as §2
# [24] = test system: field corn (Zea mays L., var. Dekalb 535, CORN); assay: Post-emerge greenhouse test, crop damage rating; conditions: 14 days after application
# Method in brief: as §2
# [25] = test system: upland rice (Oryza sp., var.Tebonnet, RICE); assay: Post-emerge greenhouse test, crop damage rating; conditions: 14 days after application
# Method in brief: as §2
# [26] = test system: soybean (Glycine max L., var. Pella 86, SOY); assay: Post-emerge greenhouse test, crop damage rating; conditions: 14 days after application
# Method in brief: as §2
compound,measurement,setting,value
Cc1nsc(Oc2cc(-n3nnn(CCCF)c3=O)c(F)cc2Cl)c1[N+](=O)[O-] [Compound 6-17],phytotoxicity rating SORHA,[1]; 125 g ai/ha,0
same,phytotoxicity rating SORHA,[1]; 500 g ai/ha,0
same,phytotoxicity rating ECHCG,[2]; 125 g ai/ha,0
same,phytotoxicity rating ECHCG,[2]; 500 g ai/ha,0
same,phytotoxicity rating AMBEL,[3]; 125 g ai/ha,0
same,phytotoxicity rating AMBEL,[3]; 500 g ai/ha,0
same,phytotoxicity rating SETVI,[4]; 125 g ai/ha,0
same,phytotoxicity rating SETVI,[4]; 500 g ai/ha,0
same,phytotoxicity rating IPOHE,[5]; 125 g ai/ha,0
same,phytotoxicity rating IPOHE,[5]; 500 g ai/ha,0
same,phytotoxicity rating CHEAL,[6]; 125 g ai/ha,0
same,phytotoxicity rating CHEAL,[6]; 500 g ai/ha,0
same,phytotoxicity rating DIGSA,[7]; 125 g ai/ha,0
same,phytotoxicity rating DIGSA,[7]; 500 g ai/ha,0
same,phytotoxicity rating AMARE,[8]; 125 g ai/ha,0
same,phytotoxicity rating AMARE,[8]; 500 g ai/ha,0
same,phytotoxicity rating CASOB,[9]; 125 g ai/ha,0
same,phytotoxicity rating CASOB,[9]; 500 g ai/ha,0
same,phytotoxicity rating ABUTH,[10]; 125 g ai/ha,0
same,phytotoxicity rating ABUTH,[10]; 500 g ai/ha,0
same,crop damage rating CORN,[11]; 125 g ai/ha,0
same,crop damage rating CORN,[11]; 500 g ai/ha,0
same,crop damage rating RICE,[12]; 125 g ai/ha,6
same,crop damage rating RICE,[12]; 500 g ai/ha,0
same,crop damage rating SOY,[13]; 125 g ai/ha,0
same,crop damage rating SOY,[13]; 500 g ai/ha,0
same,AMBEL phytotoxicity rating (0-100),[14]; 63 g al/ha,0
same,AMBEL phytotoxicity rating (0-100),[14]; 500 g al/ha,0
same,SORHA phytotoxicity rating (0-100),[15]; 63 g al/ha,0
same,SORHA phytotoxicity rating (0-100),[15]; 500 g al/ha,0
same,ECHCG phytotoxicity rating (0-100),[16]; 63 g al/ha,0
same,ECHCG phytotoxicity rating (0-100),[16]; 500 g al/ha,0
same,SETVI phytotoxicity rating (0-100),[17]; 63 g al/ha,0
same,SETVI phytotoxicity rating (0-100),[17]; 500 g al/ha,0
same,IPOHE phytotoxicity rating (0-100),[18]; 63 g al/ha,0
same,IPOHE phytotoxicity rating (0-100),[18]; 500 g al/ha,0
same,CHEAL phytotoxicity rating (0-100),[19]; 63 g al/ha,0
same,CHEAL phytotoxicity rating (0-100),[19]; 500 g al/ha,0
same,DIGSA phytotoxicity rating (0-100),[20]; 63 g al/ha,0
same,DIGSA phytotoxicity rating (0-100),[20]; 500 g al/ha,0
same,AMARE phytotoxicity rating (0-100),[21]; 63 g al/ha,0
same,AMARE phytotoxicity rating (0-100),[21]; 500 g al/ha,0
same,CASOB phytotoxicity rating (0-100),[22]; 63 g al/ha,0
same,CASOB phytotoxicity rating (0-100),[22]; 500 g al/ha,0
same,ABUTH phytotoxicity rating (0-100),[23]; 63 g al/ha,0
same,ABUTH phytotoxicity rating (0-100),[23]; 500 g al/ha,0
same,CORN crop damage rating (0-100),[24]; 63 g al/ha,0
same,CORN crop damage rating (0-100),[24]; 500 g al/ha,0
same,RICE crop damage rating (0-100),[25]; 63 g al/ha,0
same,RICE crop damage rating (0-100),[25]; 500 g al/ha,0
same,SOY crop damage rating (0-100),[26]; 63 g al/ha,0
same,SOY crop damage rating (0-100),[26]; 500 g al/ha,0
O=c1sc(=Nc2cc(Oc3ncccn3)c(Cl)cc2F)n2n1CCCC2 [Compound 7-2],phytotoxicity rating SORHA,[1]; 125 g ai/ha,95
same,phytotoxicity rating SORHA,[1]; 500 g ai/ha,100
same,phytotoxicity rating ECHCG,[2]; 125 g ai/ha,99
same,phytotoxicity rating ECHCG,[2]; 500 g ai/ha,100
same,phytotoxicity rating AMBEL,[3]; 125 g ai/ha,100
same,phytotoxicity rating AMBEL,[3]; 500 g ai/ha,100
same,phytotoxicity rating SETVI,[4]; 125 g ai/ha,100
same,phytotoxicity rating SETVI,[4]; 500 g ai/ha,100
same,phytotoxicity rating IPOHE,[5]; 125 g ai/ha,100
same,phytotoxicity rating IPOHE,[5]; 500 g ai/ha,100
same,phytotoxicity rating CHEAL,[6]; 125 g ai/ha,100
same,phytotoxicity rating CHEAL,[6]; 500 g ai/ha,100
same,phytotoxicity rating DIGSA,[7]; 125 g ai/ha,100
same,phytotoxicity rating DIGSA,[7]; 500 g ai/ha,100
same,phytotoxicity rating AMARE,[8]; 125 g ai/ha,100
same,phytotoxicity rating AMARE,[8]; 500 g ai/ha,100
same,phytotoxicity rating CASOB,[9]; 125 g ai/ha,60
same,phytotoxicity rating CASOB,[9]; 500 g ai/ha,100
same,phytotoxicity rating ABUTH,[10]; 125 g ai/ha,100
same,phytotoxicity rating ABUTH,[10]; 500 g ai/ha,100
same,crop damage rating CORN,[11]; 125 g ai/ha,45
same,crop damage rating CORN,[11]; 500 g ai/ha,70
same,crop damage rating RICE,[12]; 125 g ai/ha,90
same,crop damage rating RICE,[12]; 500 g ai/ha,100
same,crop damage rating SOY,[13]; 125 g ai/ha,0
same,crop damage rating SOY,[13]; 500 g ai/ha,80
same,AMBEL phytotoxicity rating (0-100),[14]; 63 g al/ha,100
same,AMBEL phytotoxicity rating (0-100),[14]; 500 g al/ha,100
same,SORHA phytotoxicity rating (0-100),[15]; 63 g al/ha,60
same,SORHA phytotoxicity rating (0-100),[15]; 500 g al/ha,100
same,ECHCG phytotoxicity rating (0-100),[16]; 63 g al/ha,40
same,ECHCG phytotoxicity rating (0-100),[16]; 500 g al/ha,95
same,SETVI phytotoxicity rating (0-100),[17]; 63 g al/ha,90
same,SETVI phytotoxicity rating (0-100),[17]; 500 g al/ha,100
same,IPOHE phytotoxicity rating (0-100),[18]; 63 g al/ha,100
same,IPOHE phytotoxicity rating (0-100),[18]; 500 g al/ha,100
same,CHEAL phytotoxicity rating (0-100),[19]; 63 g al/ha,100
same,CHEAL phytotoxicity rating (0-100),[19]; 500 g al/ha,100
same,DIGSA phytotoxicity rating (0-100),[20]; 63 g al/ha,30
same,DIGSA phytotoxicity rating (0-100),[20]; 500 g al/ha,85
same,AMARE phytotoxicity rating (0-100),[21]; 63 g al/ha,100
same,AMARE phytotoxicity rating (0-100),[21]; 500 g al/ha,100
same,CASOB phytotoxicity rating (0-100),[22]; 63 g al/ha,100
same,CASOB phytotoxicity rating (0-100),[22]; 500 g al/ha,100
same,ABUTH phytotoxicity rating (0-100),[23]; 63 g al/ha,100
same,ABUTH phytotoxicity rating (0-100),[23]; 500 g al/ha,100
same,CORN crop damage rating (0-100),[24]; 63 g al/ha,35
same,CORN crop damage rating (0-100),[24]; 500 g al/ha,90
same,RICE crop damage rating (0-100),[25]; 63 g al/ha,80
same,RICE crop damage rating (0-100),[25]; 500 g al/ha,95
same,SOY crop damage rating (0-100),[26]; 63 g al/ha,95
same,SOY crop damage rating (0-100),[26]; 500 g al/ha,100
